In patent US7071340B2, “Fungicidal 1-benzoxepin derivatives” (Bayer Cropscience S.A., priority 2001, dated 2006):

Assays:
Septoria nodorum = assay: Biological test on isolated fungi in culture medium, 96-well microplates (Example B2); format: cell-based; conditions: Parastagonospora nodorum, 120 h; dose of 50 ppm; culturing 5 days at 20° C.; optical density at 620 nm or 405 nm; read-out: inhibition of Septoria nodorum (percentage of inhibition of the growth, Abbott's formula)
Method: (§1) The test is carried out on isolated fungi in a culture medium, in 96-well microplates. The products are dissolved in acetonitrile and are then diluted to 1/50th in methanol, so as to distribute 50 μl for a dose of 50 ppm in each well. Once the compounds are distributed, the microplates are dried under a stream of nitrogen at 40° C. The culture medium and the inoculum are subsequently added.
(§2) The growth of the fungi is measured after culturing for 5 days at 20° C. by reading the optical density at 620 nm or 405 nm, depending on the strains. The effectiveness of the product is the percentage of inhibition of the growth of the fungi calculated according to Abbott's formula, the absorbance of the growth control wells and the absorbance of the treated wells being taken as reference values.
At a dose of 50 ppm, complete or good (at least 70%) inhibition of Septoria nodorum is observed with the compounds described in the following examples: 5, 28, 29, 30, 32, 33, 34, 40, 55, 57, 63, 65, 67, 68, 70, 72, 82 and 86.

Magnaporthe orysae = assay: tissue or blood; format: cell-based; conditions: 120 h, read-out: inhibition of Magnaporthe orysae (percentage of inhibition of the growth, Abbott's formula)
Botrytis cinerea = assay: Biological test on isolated fungi in culture medium, 96-well microplates (Example B1); format: cell-based; conditions: 120 h, dose of 50 ppm, culturing 5 days at 20° C., optical density at 620 nm or 405 nm, read-out: inhibition of Botrytis cinerea (percentage of inhibition of the growth, Abbott's formula)
Method: as §1, §2
At a dose of 50 ppm, complete or good (at least 70%) inhibition of Botrytis cinerea is observed with the compounds described in the following examples: 28, 32, 47, 65, 68 and 70.

Rhizoctonia solani = assay: Biological test on isolated fungi in culture medium, 96-well microplates (Example B6); format: cell-based; conditions: 120 h, dose of 50 ppm, culturing 5 days at 20° C., optical density at 620 nm or 405 nm, read-out: inhibition of Rhizoctonia solani (percentage of inhibition of the growth, Abbott's formula)
Method: as §1, §2
At a dose of 50 ppm, complete or good (at least 70%) inhibition of Rhizoctonia solani is observed with the compounds described in the following examples: 28, 32, 55, 68 and 70.

Monilia fructigena = assay: Biological test on isolated fungi in culture medium, 96-well microplates (Example B3); format: cell-based; conditions: 120 h, dose of 50 ppm, culturing 5 days at 20° C., optical density at 620 nm or 405 nm, read-out: inhibition of Monilia fructigena (percentage of inhibition of the growth, Abbott's formula)
Method: as §1, §2
At a dose of 50 ppm, complete or good (at least 70%) inhibition of Monilia fructigena is observed with the compounds described in the following examples: 28, 32 and 70.

[1] = system: Mycosphaerella graminacola; assay: Biological test on isolated fungi in culture medium, 96-well microplates (Example B7); format: cell-based; conditions: 120 h, dose of 50 ppm, culturing 5 days at 20° C., optical density at 620 nm or 405 nm, read-out: inhibition of Mycosphaerella graminacola (percentage of inhibition of the growth, Abbott's formula)
Method: as §1, §2
At a dose of 50 ppm, complete or good (at least 70%) inhibition of Mycosphaerella graminacola is observed with the compounds described in the following examples: 28, 32, 55 and 70.

Venturia pirina = assay: Biological test on isolated fungi in culture medium, 96-well microplates (Example B8); format: cell-based; conditions: Venturia pyrina, 120 h; dose of 50 ppm; culturing 5 days at 20° C.; optical density at 620 nm or 405 nm; read-out: inhibition of Venturia pirina (percentage of inhibition of the growth, Abbott's formula)
Method: as §1, §2
At a dose of 50 ppm, complete or good (at least 70%) inhibition of Venturia pirina is observed with the compounds described in the following example: 28.

Row | SMILES | inhibition at 50 ppm (Septoria nodorum) [%] | melting point [°C] | other results
1 | COC(=O)c1ccc2c(c1)CCC(=CCl)CO2 [Example 5, methyl 3-(chloromethylene)-2,3,4,5-tetrahydro-1-benzoxepin-7-carboxylate] | ≥ 70 |  | 
2 | C=C1COc2ccc(C(=O)OC)cc2C(Cc2ccccc2)(S(=O)(=O)c2ccccc2)C1 (stereo not shown) [Example 6, methyl 5-benzyl-3-methylene-5-(phenylsulfonyl)-2,3,4,5-tetrahydro-1-benzoxepin-7-carboxylate] |  | 164 to 165 | 
3 | C=C1COc2ccc(C(C)=O)cc2C(S(=O)(=O)c2ccccc2)C1 (stereo not shown) [Example 13, 1-[3-methylene-5-(phenylsulfonyl)-2,3,4,5-tetrahydro-1-benzoxepin-7-yl]ethanone] |  | 124 to 125 | 
4 | CC(=O)c1ccc2c(c1)CCC(=O)CO2 [Example 16, 7-acetyl-4,5-dihydro-1-benzoxepin-3(2H)-one] |  | 80 to 82 | 
5 | C=C1COc2ccc(C(C)=O)cc2C(Cc2ccccc2)(S(=O)(=O)c2ccccc2)C1 (stereo not shown) [Example 18, 1-[5-benzyl-3-methylene-5-(phenylsulfonyl)-2,3,4,5-tetrahydro-1-benzoxepin-7-yl]ethanone] |  | 131 to 132 | 
6 | CC(=O)c1ccc2c(c1)C=CC(=CCl)CO2 [Example 28, 1-[3-(chloromethylene)-2,3-dihydro-1-benzoxepin-7-yl]ethanone] | ≥ 70 |  | inhibition at 50 ppm (Magnaporthe orysae): ≥ 70%; inhibition at 50 ppm (Botrytis cinerea): ≥ 70%; inhibition at 50 ppm (Rhizoctonia solani): ≥ 70%; inhibition at 50 ppm (Monilia fructigena): ≥ 70%; inhibition at 50 ppm [1]: ≥ 70%; inhibition at 50 ppm (Venturia pirina): ≥ 70%
7 | CC(=O)c1ccc2c(c1)C(Cc1ccccc1)=CC(=O)CO2 [Example 29, 7-acetyl-5-benzyl-1-benzoxepin-3(2H)-one] | ≥ 70 |  | 
8 | CC(=O)c1ccc2c(c1)C(Cc1ccccc1)=CC(=CCl)CO2 [Example 30, 1-[5-benzyl-3-(chloromethylene)-2,3-dihydro-1-benzoxepin-7-yl]ethanone] | ≥ 70 |  | 
9 | COC(=O)c1ccc2c(c1)C=CC(=O)CO2 [Example 31, methyl 3-oxo-2,3-dihydro-1-benzoxepin-7-carboxylate] |  | 98 | 
10 | COC(=O)c1ccc2c(c1)C=CC(=CCl)CO2 [Example 32, methyl 3-(chloromethylene)-2,3-dihydro-1-benzoxepin-7-carboxylate] | ≥ 70 | 72 to 77 | inhibition at 50 ppm (Magnaporthe orysae): ≥ 70%; inhibition at 50 ppm (Botrytis cinerea): ≥ 70%; inhibition at 50 ppm (Rhizoctonia solani): ≥ 70%; inhibition at 50 ppm (Monilia fructigena): ≥ 70%; inhibition at 50 ppm [1]: ≥ 70%
11 | COC(=O)c1ccc2c(c1)C(Cc1ccccc1)=CC(=O)CO2 [Example 33, methyl 5-benzyl-3-oxo-2,3-dihydro-1-benzoxepin-7-carboxylate] | ≥ 70 |  | 
12 | COC(=O)c1ccc2c(c1)C(Cc1ccccc1)=CC(=CCl)CO2 [Example 34, methyl 5-benzyl-3-(chloromethylene)-2,3-dihydro-1-benzoxepin-7-carboxylate] | ≥ 70 |  | 
13 | C=C1C=Cc2cc(C(=O)O)ccc2OC1 [Example 40, 3-methylene-2,3-dihydro-1-benzoxepin-7-carboxylic acid] | ≥ 70 | 188 | 
14 | C=C1C=Cc2cc(C(=O)Nc3ccccc3)ccc2OC1 [Example 41, 3-methylene-N-phenyl-2,3-dihydro-1-benzoxepin-7-carboxamide] |  | 139 | 
15 | COC(=O)c1ccc2c(c1)C=CC(=C(Cl)Cl)CO2 [Example 54, methyl 3-(dichloromethylene)-2,3-dihydro-1-benzoxepin-7-carboxylate] |  | 119 to 121 | 
16 | O=C(O)c1ccc2c(c1)C=CC(=CCl)CO2 [Example 63, 3-(chloromethylene)-2,3-dihydro-1-benzoxepin-7-carboxylic acid] | ≥ 70 | > 260 | 
17 | O=Cc1ccc2c(c1)C=CC(=CCl)CO2 [Example 72, 3-(chloromethylene)-2,3-dihydro-1-benzoxepin-7-carbaldehyde] | ≥ 70 |  | 
